Experimental data: article PMC10046037, “GABRG2 Variants Associated with Febrile Seizures” (Biomolecules, 2023)

Target: T1, α1β3γ2 GABAA receptor, γ2W162X variant (Homo sapiens, UniProt P14867+P28472)
T1 construct: expressed in transfected cells; host or cells: HEK293T
T1 sequence (P14867 28-456): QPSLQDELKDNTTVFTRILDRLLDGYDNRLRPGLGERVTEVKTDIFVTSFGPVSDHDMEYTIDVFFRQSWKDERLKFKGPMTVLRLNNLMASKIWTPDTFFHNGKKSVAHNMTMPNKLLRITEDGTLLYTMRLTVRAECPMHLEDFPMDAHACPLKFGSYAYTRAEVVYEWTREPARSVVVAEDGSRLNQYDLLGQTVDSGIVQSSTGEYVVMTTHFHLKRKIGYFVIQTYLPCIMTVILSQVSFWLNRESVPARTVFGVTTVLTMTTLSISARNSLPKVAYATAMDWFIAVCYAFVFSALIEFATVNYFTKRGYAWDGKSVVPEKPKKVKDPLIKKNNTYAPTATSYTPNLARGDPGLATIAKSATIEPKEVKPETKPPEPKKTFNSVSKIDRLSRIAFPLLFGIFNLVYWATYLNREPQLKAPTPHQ
T1 sequence (P28472 1-473 isoform P28472-2): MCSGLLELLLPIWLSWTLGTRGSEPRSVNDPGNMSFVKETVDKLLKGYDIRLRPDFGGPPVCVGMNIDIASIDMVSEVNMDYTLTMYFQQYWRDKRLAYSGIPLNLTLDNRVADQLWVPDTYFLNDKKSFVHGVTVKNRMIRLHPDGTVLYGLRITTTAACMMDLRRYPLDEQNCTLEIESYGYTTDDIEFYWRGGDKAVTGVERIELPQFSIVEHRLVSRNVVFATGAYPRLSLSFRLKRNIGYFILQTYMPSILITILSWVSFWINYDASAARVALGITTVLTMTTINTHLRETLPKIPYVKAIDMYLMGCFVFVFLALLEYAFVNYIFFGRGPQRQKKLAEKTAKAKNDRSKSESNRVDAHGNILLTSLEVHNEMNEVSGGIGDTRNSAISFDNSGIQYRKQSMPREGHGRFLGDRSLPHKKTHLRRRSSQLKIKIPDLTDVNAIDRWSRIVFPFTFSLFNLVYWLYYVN
Test: Automated patch clamp of GABA-elicited currents (SyncroPatch 384PE), γ2W162X
Type: cell-based
Conditions: mean
Protocol: The coding sequences of human α1 (GABRA1, NM_000806), β3 (GABRB3, NM_021912), and γ2 (GABRG2, NM_198904.2) GABAAR subunits were subcloned into the pcDNA3.1 expression vectors (Invitrogen, Waltham, MA, USA).
HEK293T cells (ATCC, CRL-11268) were cultured at 37 °C in a humidified 5% CO2 incubator and maintained in Dulbecco’s modified Eagle’s medium (Invitrogen) supplemented with 10% fetal bovine serum (Life Technologies, Carlsbad, CA, USA), and 100 IU/mL of penicillin/streptomycin (Life Technologies). For the expression experiments, 4 × 10^5 cells were transfected using polyethylenimine (PEI) reagent (40 kD, Polysciences, Warrington, PA, USA) at a DNA: to transfection reagent ratio of 1:2.5 and harvested 36 h after transfection. To express WT and variant α1β3γ2 receptors, a total of 3 µg of α1, β3, and γ2 (WT or mutant) subunit cDNAs were transfected at a ratio of 1:1:1 into 60 mm culture dishes. For the mock-transfected condition, an empty pcDNA3.1 vector was added for a final cDNA transfection amount of 3 μg. For the electrophysiology experiments, 2.5 × 10^5 cells were plated in 100 mm culture dishes and transfected after 24 h with 3 μg of cDNA of each α1, β3, γ2 (wild-type or mutant) subunit, using X-tremeGENE HP DNA transfection Reagent (Roche Diagnostics, Basel, Switzerland), following the manufacturer’s protocol. Recordings were obtained forty-eight hours after transfection.
Whole-cell patch clamp recordings were conducted according to the manufacturer’s standard procedure for the SyncroPatch 384 [31]. Whole-cell voltage-clamp recordings were performed at room temperature on HEK293T cells 48 h after transfection with GABAAR subunits, using the SyncroPatch 384PE (Nanion Technologies, Munich, Germany). Cells, at a concentration of 400,000 cells/mL, were harvested in suspension in external solution containing 140 mM of NaCl, 2 mM of CaCl2, 4 mM of KCl, 1 mM of MgCl2, 5 mM of glucose, and 10 mM of HEPES (pH 7.4 with NaOH, 298 mOsm). The cells were loaded in a multi-hole (4 holes per well) 384-well Nanion patch clamp (NPC) chip with a thick borosilicate glass bottom and an average resistance pore size of […]. Built-in electrophysiological protocols were used, and the data were digitized using PatchControl 384 (Nanion Technologies) application. Using PatchControl 384, electrophysiological parameters, such as seal resistance, capacitance, and series resistance, were determined for each well after the application of a test pulse, and subsequently monitored over time. […] The currents were normalized to the maximal response of each well, and the concentration–response curves were calculated from single-point additions. The EC50 values for each variant or wild-type receptor were calculated across multiple wells for each experimental condition.

In the case of `NCCCC(=O)O` [GABA, γ-aminobutyric acid], the Deactivation (1 mM GABA for 5 ms, HEK293T, -80 mV) is reported as 533.8 ms, the “IMAX (maximal GABA-evoked peak current)” value (1 mM GABA for 5 ms, HEK293T) is reported as 0.48 nA and the “IMAX variant/IMAX WT” value (1 mM GABA) is reported as 24.07%. The “Rise Time” value (10–90% rise time, 1 mM GABA for 5 ms, HEK293T) was 23.51 ms.
